Converted amounts (≈) assume the structure as drawn.
Legend:
Assay type in all cases: functional
[1] = tested on: Bifidobacterium thermophilum; experiment: Antibacterial activity against Bifidobacterium thermophilum B0219 by broth microdilution method
[2] = tested on: Bifidobacterium thermophilum; experiment: Antibacterial activity against Bifidobacterium thermophilum B0241 by broth microdilution method
[3] = tested on: Bifidobacterium thermophilum; experiment: Antibacterial activity against Bifidobacterium thermophilum B0242 by broth microdilution method
[4] = tested on: Bifidobacterium thermophilum; experiment: Antibacterial activity against Bifidobacterium thermophilum B0253 by broth microdilution method
[5] = tested on: Bifidobacterium thermophilum; experiment: Antibacterial activity against Bifidobacterium thermophilum B0256 by broth microdilution method
Lactobacillus johnsonii = experiment: Antibacterial activity against Lactobacillus johnsonii L0077 by Etest

For `CN(C)[C@@H]1C(O)=C(C(N)=O)C(=O)[C@@]2(O)C(O)=C3C(=O)c4c(O)cccc4[C@@](C)(O)[C@H]3C[C@@H]12` [TETRACYCLINE], the MIC [1] was 128 µg/mL (≈ 288 µM), the MIC [2] was 128 µg/mL (≈ 288 µM) and the MIC [3] was 256 µg/mL (≈ 576 µM). The MIC [4] was 128 µg/mL (≈ 288 µM), the MIC [5] was 128 µg/mL (≈ 288 µM) and the MIC (Lactobacillus johnsonii) was > 256 µg/mL.

Reference: ChEMBL document CHEMBL1151462, “Mosaic tetracycline resistance genes and their flanking regions in Bifidobacterium thermophilum and Lactobacillus johnsonii” (2008)
